Measured values as given in BindingDB's records for doi:10.1021/jm50001a017 (1985).
pKd: −log10 of the molar value.

Key:
[1] = target: Beta-2 adrenergic receptor (Mus musculus) (UniProt P18762); assay: KD constant value was evaluated for the displacement of ICYP (iodocyanopindolol) binding
[2] = target: Beta-2 adrenergic receptor (Mus musculus) (UniProt P18762); assay: KD constant value was evaluated for the displacement of ICYP (iodocyanopindolol) binding in […] lymphoma cell

Chain of Beta-2 adrenergic receptor (Mus musculus) (P18762 whole entry, looked up): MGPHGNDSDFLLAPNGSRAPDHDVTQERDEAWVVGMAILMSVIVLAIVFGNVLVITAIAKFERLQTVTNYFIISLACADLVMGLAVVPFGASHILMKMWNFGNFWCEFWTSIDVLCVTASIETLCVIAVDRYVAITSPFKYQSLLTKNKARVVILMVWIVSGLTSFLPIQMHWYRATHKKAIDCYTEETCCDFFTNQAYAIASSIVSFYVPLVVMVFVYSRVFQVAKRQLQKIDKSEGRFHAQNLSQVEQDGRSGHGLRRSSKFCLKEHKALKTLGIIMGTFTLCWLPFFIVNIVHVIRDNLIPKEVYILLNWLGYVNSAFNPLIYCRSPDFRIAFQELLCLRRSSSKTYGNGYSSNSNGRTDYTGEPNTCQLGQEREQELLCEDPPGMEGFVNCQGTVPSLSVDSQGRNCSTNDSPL

Row | SMILES | pKd [1] | pKd [2]
1 | CC(CCCCN)NCC(O)c1ccc(O)c(O)c1 (stereo not drawn) | 5.00 | –
2 | Cc1ccc(NC(=O)NCCCCC(C)NCC(O)c2ccc(O)c(O)c2)cc1 (stereo not drawn) | – | 6.33
3 | Cc1ccc(C(=O)NCCCCC(C)NCC(O)c2ccc(O)c(O)c2)cc1 (stereo not drawn) | 6.49 | –
